Experimental data reported in patent publication US12570639B2, “Tetrahydroquinoline derivative and medicinal use thereof” (Toray Industries, Inc., priority 2020, dated 2026).

System: Human fibrosarcoma cells (HT-1080 cells)
Experiment: In vitro inhibitory action against ferroptosis (Erastin-induced cell death, Cell Counting Kit-8)
Format: cell-based
Conditions: evaluation concentration 30 μmol/L, Erastin 3 μmol/L, 24 hours
Procedure: The inhibitory action against ferroptosis of the tetrahydroquinoline derivative (I) or a pharmaceutically acceptable salt thereof was evaluated with Human fibrosarcoma cells (HT-1080 cells), by using, as an index, the inhibitory action against the cell death induced by treatment with a ferroptosis inducer, Erastin.
HT-1080 cells (ATCC) were cultured in a mixture (hereinafter referred to as vehicle) composed of DMEM/F12 (Thermo Fisher Scientific, Inc.), a final concentration of 10% fetal bovine serum (Thermo Fisher Scientific, Inc.), and a final concentration of 1% penicillin-streptomycin solution (Nacalai Tesque, Inc.). Cells were seeded into 96-well plates (Corning Inc.) at 5×10^4 cells/well and cultured overnight.
A test compound was dissolved in DMSO, and the resulting solution was diluted in the vehicle to a final concentration of 1% DMSO and then used. […] Thirty minutes after the addition of the test compound, Erastin (Cayman Chemical Co.) diluted in the vehicle at a final concentration of 3 μmol/L was added to wells. The wells added with the test compound and Erastin were grouped as “test compound,” and the wells added with no test compound and no Erastin were grouped as “background,” and the wells added with no test compound but with Erastin were grouped as “control.” Twenty-four hours after the addition of Erastin, 5 μL of Cell Counting Kit-8 (Dojindo Laboratories) was added to each well and incubated for 4 hours, and the absorbance at 450 nm was then measured for each well (N=2). […] Ferroptosis inhibition rate (%)=[1−{(Average absorbance value at 450 nm measured when a test compound is added)−(Average absorbance value at 450 nm measured in the background)}/{(Average absorbance value at 450 nm measured in the control)−(Average absorbance value at 450 nm measured in the background)}]×100 Equation 1

Compound | Ferroptosis inhibition rate (%)
7-fluoro-(1H-pyrazol-4-yl)-1,2,3,4-tetrahydroquinoline [Example 140] | 72.81
COC(=O)[C@@H]1C[C@H](c2ccccc2)Nc2ccccc21 (relative stereo) [Example 88, methyl (2R*, 4R*)-2-phenyl-1,2,3,4-tetrahydroquinolin-4-carboxylate] | 97.70
OC[C@@H]1C[C@H](c2ccccc2)Nc2ccccc21 (relative stereo) [Example 89, ((2R*,4R*)-2-phenyl-1,2,3,4-tetrahydroquinolin-4-yl)methanol] | 99.12
C[C@@H]1C[C@H](c2ccccc2)Nc2ccccc21 (relative stereo) [Example 90, (2R*,4R*)-4-methyl-2-phenyl-1,2,3,4-tetrahydroquinoline] | 102.4
c1ccc2c(c1)CCC(c1cn[nH]c1)N2 (centres unmarked) [Example 12, 2-(1H-pyrazol-4-yl)-1,2,3,4-tetrahydroquinoline] | 110.9
c1ccc2c(c1)CCC(c1cn[nH]c1)N2 (centres unmarked) [Example 13, 2-(1H-pyrazol-4-yl)-1,2,3,4-tetrahydroquinoline] | 119.6
COc1ccc(C2CCc3ccccc3N2)cn1 (centres unmarked) [Example 15, 2-(6-methoxypyridin-3-yl)-1,2,3,4-tetrahydroquinoline] | 89.22
CC(C)(O)c1ccc(C2CCc3ccccc3N2)cc1 (centres unmarked) [Example 18, 2-(4-(1,2,3,4-tetrahydroquinolin-2-yl)phenyl)propan-2-ol] | 66.52
NS(=O)(=O)c1cccc(C2CCc3ccccc3N2)c1 (centres unmarked) [Example 19, 3-(1,2,3,4-tetrahydroquinolin-2-yl)benzenesulfonamide] | 100.5
NS(=O)(=O)c1ccccc1C1CCc2ccccc2N1 (centres unmarked) [Example 20, 2-(1,2,3,4-tetrahydroquinolin-2-yl)benzenesulfonamide] | 95.88
c1ccc2c(c1)CCC(c1cc[nH]n1)N2 (centres unmarked) [Example 22, 2-(1H-pyrazol-3-yl)-1,2,3,4-tetrahydroquinoline] | 103.2
O=C1CCc2cc(C3CCc4ccccc4N3)ccc2N1 (centres unmarked) [Example 23, 1,2,3,3′,4,4′-hexahydro-[2,6′-biquinolin]-2′(1′H)-one] | 68.45
CN1C(=O)CCc2cc(C3CCc4ccccc4N3)ccc21 (centres unmarked) [Example 24, 1′-methyl-1,2,3,3′,4,4′-hexahydro-[2,6′-biquinolin]-2′(1′H)-one] | 59.67
O=C1NCc2cc(C3CCc4ccccc4N3)ccc21 (centres unmarked) [Example 25, 5-(1,2,3,4-tetrahydroquinolin-2-yl)isoindolin-1-one] | 105.3
CCN(CC)C(=O)c1ccc(C2CCc3ccccc3N2)cc1 (centres unmarked) [Example 39, N,N-diethyl-4-(1,2,3,4-tetrahydroquinolin-2-yl)benzamide] | 101.5
CCNC(=O)c1ccc(C2CCc3ccccc3N2)cc1 (centres unmarked) [Example 40, N-ethyl-4-(1,2,3,4-tetrahydroquinolin-2-yl)benzamide] | 111.1
O=C(c1ccc(C2CCc3ccccc3N2)cc1)N1CCCCC1 (centres unmarked) [Example 41, piperidin-1-yl(4-(1,2,3,4-tetrahydroquinolin-2-yl)phen-yl)methanone] | 102.2
O=C(c1ccc(C2CCc3ccccc3N2)cc1)N1CCOCC1 (centres unmarked) [Example 42, morpholino(4-(1,2,3,4-tetrahydroquinolin-2-yl)phenyl)methanone] | 98.89
CN1CCN(C(=O)c2ccc(C3CCc4ccccc4N3)cc2)CC1 (centres unmarked) [Example 43, (4-methylpiperazin-1-yl)(4-(1,2,3,4-tetrahydroquinolin-2-yl)phenyl)methanone] | 107.1
N#Cc1cccc(C2CCc3ccccc3N2)c1 (centres unmarked) [Example 45, 3-(1,2,3,4-tetrahydroquinolin-2-yl)benzonitrile] | 109.1
NC(=O)c1cccc(C2CCc3ccccc3N2)c1 (centres unmarked) [Example 46, 3-(1,2,3,4-tetrahydroquinolin-2-yl)benzamide] | 109.0
OCc1ccccc1C1CCc2ccccc2N1 (centres unmarked) [Example 47, (2-(1,2,3,4-tetrahydroquinolin-2-yl)phenyl)methanol] | 85.21
OCc1cccc(C2CCc3ccccc3N2)c1 (centres unmarked) [Example 48, (3-(1,2,3,4-tetrahydroquinolin-2-yl)phenyl)methanol] | 81.80
OCc1ccc(C2CCc3ccccc3N2)cc1 (centres unmarked) [Example 49, (4-(1,2,3,4-tetrahydroquinolin-2-yl)phenyl)methanol] | 99.20
c1ccc2c(c1)CCC(c1cnsc1)N2 (centres unmarked) [Example 50, 4-(1,2,3,4-tetrahydroquinolin-2-yl)isothiazole] | 103.2
CC(C)c1ccc2c(c1)CCC(c1ccccc1)N2 (centres unmarked) [Example 54, 6-isopropyl-2-phenyl-1,2,3,4-tetrahydroquinoline] | 109.9
Oc1ccc2c(c1)CCC(c1ccccc1)N2 (centres unmarked) [Example 55, 2-phenyl-1,2,3,4-tetrahydroquinolin-6-ol] | 93.72
CC(C)(O)c1ccc2c(c1)CCC(c1ccccc1)N2 (centres unmarked) [Example 57, 2-(2-phenyl-1,2,3,4-tetrahydroquinolin-6-yl)propan-2-ol] | 89.18
c1ccc(C2CCc3cc(CN4CCOCC4)ccc3N2)cc1 (centres unmarked) [Example 59, 4-((2-phenyl-1,2,3,4-tetrahydroquinolin-6-yl)methyl)morph-oline] | 76.73

Same assay, conditions: evaluation concentration 50 μmol/L, Erastin 3 μmol/L, 24 hours

Compound | Ferroptosis inhibition rate (%)
COc1ccc(C2CCc3ccccc3N2)cc1 (centres unmarked) [Example 4, 2-(4-methoxyphenyl)-1,2,3,4-tetrahydroquinoline] | 99.10
COc1cccc(C2CCc3ccccc3N2)c1 (centres unmarked) [Example 5, 2-(3-methoxyphenyl)-1,2,3,4-tetrahydroquinoline] | 99.69
COc1ccccc1C1CCc2ccccc2N1 (centres unmarked) [Example 6, 2-(2-methoxyphenyl)-1,2,3,4-tetrahydroquinoline] | 90.22
COc1ccc2c(c1)CCC(c1ccc3c(c1)OCO3)N2 (centres unmarked) [Example 7, 2-(benzo[d][1,3]dioxol-5-yl)-6-methoxy-1,2,3,4-tetrahydro-quinoline] | 93.95
COc1ccc(C2CCc3ccc(OC)cc3N2)cc1 (centres unmarked) [Example 8, 7-methoxy-2-(4-methoxyphenyl)-1,2,3,4-tetrahydroquinoline] | 100.6
c1ccc2c(c1)CCC(c1ccc3c(c1)OCO3)N2 (centres unmarked) [Example 9, 2-(benzo[d][1,3]dioxol-5-yl)-1,2,3,4-tetrahydroquinoline] | 88.84
FC(F)(F)c1ccccc1C1CCc2ccccc2N1 (centres unmarked) [Example 10, 2-(2-(trifluoromethyl)phenyl)-1,2,3,4-tetrahydroquinoline] | 103.9
Cn1cc(C2CCc3ccccc3N2)cn1 (centres unmarked) [Example 14, 2-(1-methyl-1H-pyrazol-4-yl)-1,2,3,4-tetrahydroquinoline] | 97.39
COC(=O)c1ccc(C2CCc3ccccc3N2)cc1 (centres unmarked) [Example 17, methyl 4-(1,2,3,4-tetrahydroquinolin-2-yl)benzoate] | 98.12
Fc1cccc(C2CCc3ccccc3N2)c1 (centres unmarked) [Example 27, 2-(3-fluorophenyl)-1,2,3,4-tetrahydroquinoline] | 113.1
Fc1ccccc1C1CCc2ccccc2N1 (centres unmarked) [Example 28, 2-(2-fluorophenyl)-1,2,3,4-tetrahydroquinoline] | 109.4
FC(F)(F)c1cccc(C2CCc3ccccc3N2)c1 (centres unmarked) [Example 30, 2-(3-(trifluoromethyl)phenyl)-1,2,3,4-tetrahydroquinoline] | 83.09
CNC(=O)c1cccc(C2CCc3ccccc3N2)c1 (centres unmarked) [Example 44, N-methyl-3-(1,2,3,4-tetrahydroquinolin-2-yl)benzamide] | 114.3
OCc1cccc2c1CCC(c1ccccc1)N2 (centres unmarked) [Example 51, (2-phenyl-1,2,3,4-tetrahydroquinolin-5-yl)methanol] | 84.55
OCc1ccc2c(c1)NC(c1ccccc1)CC2 (centres unmarked) [Example 52, (2-phenyl-1,2,3,4-tetrahydroquinolin-7-yl)methanol] | 74.96
c1ccc(C2CCc3ccccc3N2)nc1 (centres unmarked) [Example 53, 2-(pyridin-2-yl)-1,2,3,4-tetrahydroquinoline] | 111.3
COC(=O)c1ccc2c(c1)CCC(c1ccccc1)N2 (centres unmarked) [Example 56, methyl 2-phenyl-1,2,3,4-tetrahydroquinoline-6-carboxylate] | 100.1
CC(C)(C)OC(=O)Nc1ccc2c(c1)CCC(c1ccccc1)N2 (centres unmarked) [Example 63, tert-butyl (2-phenyl-1,2,3,4-tetrahydroquinolin-6-yl)carbamate] | 68.73
